Measured values from ChEMBL document CHEMBL4402613, “Targeting ALK2: An Open Science Approach to Developing Therapeutics for the Treatment of Diffuse Intrinsic Pontine Glioma” (J Med Chem, 2020).
Active and inactive are the calls of the source. No cut-off for these calls is given here.

Experiments:
[1] = biological target: T1, Activin receptor type-1 (Homo sapiens, UniProt Q04771); assay: Inhibition of C-terminal nanoluciferase-fused ALK2 (unknown origin) expressed in HEK293 cells incubated for 2 hrs followed by NanoBRET NanoGlo Substrate addition by NanoBRET assay; assay type: cell-based
T1 sequence (Q04771 whole entry): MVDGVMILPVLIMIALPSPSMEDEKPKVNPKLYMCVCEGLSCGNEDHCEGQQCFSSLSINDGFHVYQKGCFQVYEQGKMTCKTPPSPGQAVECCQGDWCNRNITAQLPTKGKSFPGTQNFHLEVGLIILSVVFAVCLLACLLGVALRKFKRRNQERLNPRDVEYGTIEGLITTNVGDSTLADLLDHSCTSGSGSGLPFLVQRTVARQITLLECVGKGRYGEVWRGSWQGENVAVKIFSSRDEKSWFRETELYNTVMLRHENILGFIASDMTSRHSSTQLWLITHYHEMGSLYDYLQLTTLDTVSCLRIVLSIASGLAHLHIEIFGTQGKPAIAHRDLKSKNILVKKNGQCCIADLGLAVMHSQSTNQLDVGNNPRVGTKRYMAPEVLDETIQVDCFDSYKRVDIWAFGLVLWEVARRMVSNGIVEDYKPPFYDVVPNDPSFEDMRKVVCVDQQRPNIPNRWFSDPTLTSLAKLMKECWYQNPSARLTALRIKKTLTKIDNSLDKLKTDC

[2] = biological target: T2, TGF-beta receptor type-1 (Homo sapiens, UniProt P36897); assay type: cell-based, HEK293
T2 sequence (P36897 whole entry): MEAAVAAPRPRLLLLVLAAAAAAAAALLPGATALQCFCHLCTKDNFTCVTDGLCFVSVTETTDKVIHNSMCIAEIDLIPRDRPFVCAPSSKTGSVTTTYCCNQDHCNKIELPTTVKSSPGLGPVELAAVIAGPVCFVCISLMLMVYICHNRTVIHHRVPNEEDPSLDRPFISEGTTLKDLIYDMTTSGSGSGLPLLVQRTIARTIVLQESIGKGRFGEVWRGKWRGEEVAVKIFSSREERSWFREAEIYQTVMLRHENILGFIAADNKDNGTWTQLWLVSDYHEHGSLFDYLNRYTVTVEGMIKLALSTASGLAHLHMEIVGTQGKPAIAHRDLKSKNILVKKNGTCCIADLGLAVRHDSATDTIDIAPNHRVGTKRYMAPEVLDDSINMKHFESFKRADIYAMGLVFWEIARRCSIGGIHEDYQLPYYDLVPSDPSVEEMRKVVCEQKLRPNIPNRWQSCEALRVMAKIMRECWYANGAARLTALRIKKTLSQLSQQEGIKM
Description: Inhibition of ALK5 (unknown origin) expressed in HEK293 cells transfected with CAGA-luciferase and Renilla luciferase reporter measured after 24 hrs by dual luciferase reporter assay

[3] = biological target: T1, Activin receptor type-1
Description: Inhibition of human ALK2 using casein as substrate in presence of 10 uM [gamma33P] ATP by radioactive assay

[4] = biological target: T2, TGF-beta receptor type-1; assay type: single protein
Description: Inhibition of human ALK5 using casein as substrate in presence of 10 uM [gamma33P] ATP by radioactive assay

[5] = biological target: Activin receptor type-1 (Homo sapiens, UniProt Q04771, G328V); assay: Inhibition of ALK2 G328V mutant (unknown origin)
Activin receptor type-1 (Homo sapiens, UniProt Q04771, G328V), sequence (Q04771 21-509 G328V limits assumed): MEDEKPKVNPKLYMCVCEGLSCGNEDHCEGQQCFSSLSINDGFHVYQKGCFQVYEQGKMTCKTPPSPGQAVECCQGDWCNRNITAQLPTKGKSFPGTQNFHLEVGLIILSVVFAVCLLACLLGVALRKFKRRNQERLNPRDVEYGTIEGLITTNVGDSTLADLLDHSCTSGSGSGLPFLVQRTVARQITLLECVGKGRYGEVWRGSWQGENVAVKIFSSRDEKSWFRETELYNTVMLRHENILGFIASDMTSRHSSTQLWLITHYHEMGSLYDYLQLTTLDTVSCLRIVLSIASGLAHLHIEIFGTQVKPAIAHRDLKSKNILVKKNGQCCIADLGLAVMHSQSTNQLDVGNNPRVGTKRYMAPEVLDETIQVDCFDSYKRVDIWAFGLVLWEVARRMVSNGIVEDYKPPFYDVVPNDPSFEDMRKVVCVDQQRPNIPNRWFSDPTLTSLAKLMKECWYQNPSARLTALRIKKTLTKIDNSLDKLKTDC

[6] = biological target: Activin receptor type-1 (Homo sapiens, UniProt Q04771, R258G); assay: Inhibition of ALK2 R258G mutant (unknown origin)
Activin receptor type-1 (Homo sapiens, UniProt Q04771, R258G), sequence (Q04771 21-509 R258G limits assumed): as the sequence (Q04771 21-509 G328V limits assumed) above, with R238G, V308G counted along it

[7] = biological target: Activin receptor type-1 (Homo sapiens, UniProt Q04771, R206H); assay: Inhibition of human ALK2 R206H mutant using casein as substrate in presence of 10 uM [gamma33P] ATP by radioactive assay
Activin receptor type-1 (Homo sapiens, UniProt Q04771, R206H), sequence (Q04771 21-509 R206H limits assumed): as the sequence (Q04771 21-509 G328V limits assumed) above, with R186H, V308G counted along it

[8] = biological target: Misshapen-like kinase 1 (Homo sapiens) (UniProt Q8N4C8); assay: Inhibition of MINK (unknown origin) at 1 uM
Misshapen-like kinase 1 (Homo sapiens), sequence (Q8N4C8 whole entry, looked up): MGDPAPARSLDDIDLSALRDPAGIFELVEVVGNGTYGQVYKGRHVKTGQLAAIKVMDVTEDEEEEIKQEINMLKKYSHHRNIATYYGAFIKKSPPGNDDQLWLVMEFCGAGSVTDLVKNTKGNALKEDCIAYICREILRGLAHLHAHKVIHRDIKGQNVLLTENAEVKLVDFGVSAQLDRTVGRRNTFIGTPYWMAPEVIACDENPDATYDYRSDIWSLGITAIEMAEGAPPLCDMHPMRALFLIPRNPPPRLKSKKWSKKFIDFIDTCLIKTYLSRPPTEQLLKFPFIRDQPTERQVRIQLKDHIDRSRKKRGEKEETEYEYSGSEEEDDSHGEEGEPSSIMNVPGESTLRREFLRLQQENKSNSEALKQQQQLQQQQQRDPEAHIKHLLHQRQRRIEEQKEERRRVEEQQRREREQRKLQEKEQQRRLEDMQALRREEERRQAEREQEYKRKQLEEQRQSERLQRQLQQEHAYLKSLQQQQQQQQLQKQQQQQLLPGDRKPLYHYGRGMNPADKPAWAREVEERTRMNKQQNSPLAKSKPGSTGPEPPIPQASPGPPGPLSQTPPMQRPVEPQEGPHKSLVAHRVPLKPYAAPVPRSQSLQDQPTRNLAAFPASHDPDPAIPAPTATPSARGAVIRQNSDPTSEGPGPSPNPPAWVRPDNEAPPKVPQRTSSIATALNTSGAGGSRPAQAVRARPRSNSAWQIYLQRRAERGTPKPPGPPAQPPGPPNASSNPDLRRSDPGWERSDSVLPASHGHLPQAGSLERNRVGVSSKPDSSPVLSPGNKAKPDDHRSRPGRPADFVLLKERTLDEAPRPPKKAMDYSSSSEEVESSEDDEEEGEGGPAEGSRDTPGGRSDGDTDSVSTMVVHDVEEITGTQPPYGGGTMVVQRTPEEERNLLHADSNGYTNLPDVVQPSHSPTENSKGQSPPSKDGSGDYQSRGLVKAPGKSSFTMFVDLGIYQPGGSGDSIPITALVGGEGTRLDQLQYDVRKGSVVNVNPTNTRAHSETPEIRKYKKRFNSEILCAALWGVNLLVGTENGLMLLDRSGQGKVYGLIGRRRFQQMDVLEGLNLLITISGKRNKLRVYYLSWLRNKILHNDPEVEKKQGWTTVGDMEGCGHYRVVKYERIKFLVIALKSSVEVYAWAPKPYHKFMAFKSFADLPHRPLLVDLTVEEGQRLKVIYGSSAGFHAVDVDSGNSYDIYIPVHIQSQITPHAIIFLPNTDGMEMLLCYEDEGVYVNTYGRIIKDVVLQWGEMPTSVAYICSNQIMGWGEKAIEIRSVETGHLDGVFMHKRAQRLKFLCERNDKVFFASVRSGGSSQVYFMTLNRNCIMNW

[9] = biological target: T3, Non-receptor tyrosine-protein kinase TNK1 (Homo sapiens) (UniProt Q13470); assay: Inhibition of TNK1 (unknown origin) at 1 uM
T3 sequence (whole entry): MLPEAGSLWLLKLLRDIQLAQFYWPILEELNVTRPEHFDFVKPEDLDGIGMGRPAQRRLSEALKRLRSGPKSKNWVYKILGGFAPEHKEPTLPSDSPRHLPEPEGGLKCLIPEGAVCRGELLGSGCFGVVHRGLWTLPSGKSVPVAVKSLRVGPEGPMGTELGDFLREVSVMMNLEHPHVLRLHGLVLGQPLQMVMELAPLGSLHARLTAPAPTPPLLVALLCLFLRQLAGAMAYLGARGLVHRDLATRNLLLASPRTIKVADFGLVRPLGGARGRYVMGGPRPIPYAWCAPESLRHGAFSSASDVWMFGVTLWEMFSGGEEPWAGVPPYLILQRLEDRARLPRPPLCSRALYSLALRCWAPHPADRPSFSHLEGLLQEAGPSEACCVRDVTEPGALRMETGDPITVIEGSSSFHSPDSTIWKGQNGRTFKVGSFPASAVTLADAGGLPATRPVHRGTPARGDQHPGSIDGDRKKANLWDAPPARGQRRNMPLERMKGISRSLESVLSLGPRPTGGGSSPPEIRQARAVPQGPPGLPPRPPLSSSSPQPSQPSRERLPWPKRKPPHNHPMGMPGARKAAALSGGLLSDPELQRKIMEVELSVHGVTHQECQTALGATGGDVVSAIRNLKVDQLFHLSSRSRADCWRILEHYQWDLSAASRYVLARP

[10] = biological target: Bone morphogenetic protein receptor type-1A (Homo sapiens) (UniProt P36894); assay: Inhibition of ALK3 (unknown origin) at 1 uM
Bone morphogenetic protein receptor type-1A (Homo sapiens), sequence (P36894 whole entry): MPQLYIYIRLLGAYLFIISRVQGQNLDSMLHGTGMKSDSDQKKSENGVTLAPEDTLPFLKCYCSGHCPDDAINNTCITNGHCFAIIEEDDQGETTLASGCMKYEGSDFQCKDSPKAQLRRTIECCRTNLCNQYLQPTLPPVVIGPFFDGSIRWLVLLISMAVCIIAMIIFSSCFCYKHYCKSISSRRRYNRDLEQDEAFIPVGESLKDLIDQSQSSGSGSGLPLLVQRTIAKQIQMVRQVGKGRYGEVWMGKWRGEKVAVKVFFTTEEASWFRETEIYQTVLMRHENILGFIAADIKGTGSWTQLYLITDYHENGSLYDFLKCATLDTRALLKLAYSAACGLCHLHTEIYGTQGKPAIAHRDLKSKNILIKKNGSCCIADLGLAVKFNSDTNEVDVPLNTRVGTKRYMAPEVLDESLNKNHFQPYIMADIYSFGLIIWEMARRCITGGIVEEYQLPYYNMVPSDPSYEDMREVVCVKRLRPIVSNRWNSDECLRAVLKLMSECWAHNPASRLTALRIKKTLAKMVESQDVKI

[11] = biological target: T4, Serine/threonine-protein kinase A-Raf (Homo sapiens) (UniProt P10398); assay: Inhibition of ARAF (unknown origin) at 1 uM
T4 sequence (whole entry): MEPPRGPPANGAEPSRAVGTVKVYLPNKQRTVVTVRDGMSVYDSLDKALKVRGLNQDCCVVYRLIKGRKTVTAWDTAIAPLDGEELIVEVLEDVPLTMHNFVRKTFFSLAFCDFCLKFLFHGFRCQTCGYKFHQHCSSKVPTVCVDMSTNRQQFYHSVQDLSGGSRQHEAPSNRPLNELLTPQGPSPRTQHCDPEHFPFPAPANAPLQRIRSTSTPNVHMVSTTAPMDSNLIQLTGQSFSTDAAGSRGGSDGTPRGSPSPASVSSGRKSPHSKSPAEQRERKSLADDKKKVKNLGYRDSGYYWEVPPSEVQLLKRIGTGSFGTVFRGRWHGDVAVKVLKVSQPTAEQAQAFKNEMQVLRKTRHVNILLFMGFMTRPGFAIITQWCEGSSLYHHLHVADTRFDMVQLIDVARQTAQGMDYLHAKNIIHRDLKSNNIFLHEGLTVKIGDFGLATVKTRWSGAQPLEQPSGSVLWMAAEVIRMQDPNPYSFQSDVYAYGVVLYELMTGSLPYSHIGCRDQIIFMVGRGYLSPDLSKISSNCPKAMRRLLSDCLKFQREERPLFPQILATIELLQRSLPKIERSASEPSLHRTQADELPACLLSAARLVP

[12] = biological target: Activin receptor type-1-like (Homo sapiens) (UniProt P37023); assay: Inhibition of ALK1 (unknown origin) at 1 uM
Activin receptor type-1-like (Homo sapiens), sequence (P37023 whole entry): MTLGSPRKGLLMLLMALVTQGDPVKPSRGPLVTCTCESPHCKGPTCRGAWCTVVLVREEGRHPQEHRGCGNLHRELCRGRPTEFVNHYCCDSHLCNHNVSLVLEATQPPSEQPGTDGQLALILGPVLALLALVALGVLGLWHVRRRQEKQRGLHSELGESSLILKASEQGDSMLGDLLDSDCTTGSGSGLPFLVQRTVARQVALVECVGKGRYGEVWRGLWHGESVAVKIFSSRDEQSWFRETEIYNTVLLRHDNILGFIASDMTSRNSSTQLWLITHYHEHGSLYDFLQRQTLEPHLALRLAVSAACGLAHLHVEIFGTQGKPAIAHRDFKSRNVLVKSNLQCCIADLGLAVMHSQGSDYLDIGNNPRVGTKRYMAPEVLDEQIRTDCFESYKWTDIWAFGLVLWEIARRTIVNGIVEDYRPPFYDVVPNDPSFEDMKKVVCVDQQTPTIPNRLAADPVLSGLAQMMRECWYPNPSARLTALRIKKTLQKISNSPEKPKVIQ

[13] = biological target: Bone morphogenetic protein receptor type-1B (Homo sapiens) (UniProt O00238); assay: Inhibition of ALK6 (unknown origin) at 1 uM
Bone morphogenetic protein receptor type-1B (Homo sapiens), sequence (O00238 whole entry): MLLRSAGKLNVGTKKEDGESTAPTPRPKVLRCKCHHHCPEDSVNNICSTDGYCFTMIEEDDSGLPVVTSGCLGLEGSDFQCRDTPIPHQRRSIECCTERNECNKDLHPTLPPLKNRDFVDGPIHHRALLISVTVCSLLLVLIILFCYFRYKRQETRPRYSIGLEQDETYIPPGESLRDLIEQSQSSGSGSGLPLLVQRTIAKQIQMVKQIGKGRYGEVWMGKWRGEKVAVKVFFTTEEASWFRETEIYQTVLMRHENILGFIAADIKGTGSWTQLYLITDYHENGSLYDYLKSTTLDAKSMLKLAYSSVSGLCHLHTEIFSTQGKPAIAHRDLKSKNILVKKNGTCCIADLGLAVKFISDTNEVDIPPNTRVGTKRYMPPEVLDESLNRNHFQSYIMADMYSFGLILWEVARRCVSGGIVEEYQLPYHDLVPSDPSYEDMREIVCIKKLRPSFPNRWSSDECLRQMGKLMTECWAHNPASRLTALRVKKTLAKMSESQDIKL

[14] = biological target: Mitogen-activated protein kinase kinase kinase kinase 4 (Homo sapiens) (UniProt O95819); assay: Inhibition of MAP4K4 (unknown origin) at 1 uM
Mitogen-activated protein kinase kinase kinase kinase 4 (Homo sapiens), sequence (O95819 2-1239 limits assumed): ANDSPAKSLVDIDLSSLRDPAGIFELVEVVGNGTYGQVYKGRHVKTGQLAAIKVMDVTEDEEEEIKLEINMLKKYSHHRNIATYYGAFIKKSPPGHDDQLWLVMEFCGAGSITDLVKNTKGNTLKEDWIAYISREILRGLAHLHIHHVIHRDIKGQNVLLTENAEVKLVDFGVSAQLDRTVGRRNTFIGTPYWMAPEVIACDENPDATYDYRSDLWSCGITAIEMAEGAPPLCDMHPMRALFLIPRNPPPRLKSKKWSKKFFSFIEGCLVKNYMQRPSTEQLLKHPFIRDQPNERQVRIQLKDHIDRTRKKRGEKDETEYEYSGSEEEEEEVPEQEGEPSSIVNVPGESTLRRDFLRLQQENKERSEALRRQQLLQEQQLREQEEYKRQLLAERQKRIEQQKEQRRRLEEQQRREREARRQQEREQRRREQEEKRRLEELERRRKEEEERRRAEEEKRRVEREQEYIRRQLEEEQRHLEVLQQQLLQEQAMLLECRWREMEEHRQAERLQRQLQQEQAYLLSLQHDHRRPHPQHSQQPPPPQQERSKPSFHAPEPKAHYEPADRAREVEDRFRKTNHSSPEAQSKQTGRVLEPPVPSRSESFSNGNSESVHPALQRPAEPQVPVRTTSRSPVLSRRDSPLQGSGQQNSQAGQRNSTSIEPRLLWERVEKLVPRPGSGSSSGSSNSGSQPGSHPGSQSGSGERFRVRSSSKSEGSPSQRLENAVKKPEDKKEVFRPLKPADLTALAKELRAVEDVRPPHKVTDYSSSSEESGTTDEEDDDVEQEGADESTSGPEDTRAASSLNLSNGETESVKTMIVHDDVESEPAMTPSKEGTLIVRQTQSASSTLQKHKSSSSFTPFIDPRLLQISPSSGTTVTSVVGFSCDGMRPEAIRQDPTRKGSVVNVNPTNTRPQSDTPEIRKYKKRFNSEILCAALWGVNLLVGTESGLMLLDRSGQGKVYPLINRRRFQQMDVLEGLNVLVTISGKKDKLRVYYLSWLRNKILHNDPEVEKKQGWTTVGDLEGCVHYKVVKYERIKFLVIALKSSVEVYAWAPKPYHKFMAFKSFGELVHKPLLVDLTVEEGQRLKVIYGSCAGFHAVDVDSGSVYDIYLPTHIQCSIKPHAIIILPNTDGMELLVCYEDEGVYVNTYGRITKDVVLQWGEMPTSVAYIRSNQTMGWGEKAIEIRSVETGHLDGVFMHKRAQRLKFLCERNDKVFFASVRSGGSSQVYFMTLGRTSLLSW

[15] = mouse, in vivo, po, 10 mg/kg, 24 h
[16] = mouse, microsomes, 1 h, 1 µM
Description: Microsomal stability in CD-1 mouse liver microsomes assessed as parent compound remaining at 1 uM and 37 degree C measured after 60 mins in presence of NADP+ by LC-QTOF/MS analysis

[17] = mouse, in vivo, po, 10 mg/kg, 24 h; remark: listed apart in the source
Description: Half life in CB17 SCID mouse at 10 mg/kg, po measured up to 24 hrs by LC-MS/MS analysis

[18] = human, microsomes, 1 h, 1 µM
Description: Microsomal stability in human liver microsomes assessed as parent compound remaining at 1 uM and 37 degree C measured after 60 mins in presence of NADP+ by LC-QTOF/MS analysis

[19] = mouse, in vivo, po, 10 mg/kg, 24 h; remark: listed apart in the source
[20] = in vitro; conditions: human, Caco-2
Description: Apparent permeability across basolateral to apical membrane in human Caco2 cells at 5 uM incubated for 120 mins in orbital shaker by LC-QTOF/MS analysis

[21] = in vitro; conditions: human, Caco-2; remark: listed apart in the source
Description: Apparent permeability across apical to basolateral membrane in human Caco2 cells at 5 uM incubated for 120 mins in orbital shaker by LC-QTOF/MS analysis

[22] = biological target: Voltage-gated inwardly rectifying potassium channel KCNH2 (Homo sapiens, UniProt Q12809)
Description: Inhibition of human ERG expressed in HEK293 cells measured after 5 mins by whole cell patch clamp method

Row | Structure (SMILES) | IC50 [1] | IC50 [2] | IC50 [3] | IC50 [4] | also measured
1 | COCc1cc(-c2cncc(-c3ccc(N4CCNCC4)cc3)c2C)ccc1C(N)=O | 3840 nM | > 5000 nM | 687 nM | > 5000 nM | 
2 | COc1cc(-c2cncc(-c3ccc(N4CCNCC4)cc3)c2C)sc1C(N)=O | 3370 nM | > 5000 nM | 751 nM | > 5000 nM | 
3 | CNC(=O)c1ccc(-c2cncc(-c3ccc(N4CCNCC4)cc3)c2C)cc1OC | > 5000 nM | > 5000 nM | > 1000 nM | > 5000 nM | 
4 | COc1cc(-c2cncc(-c3ccc(N4CCN(C)CC4)cc3)c2C)cc(OC)c1C(N)=O | 19 nM | 249 nM | < 3 nM | 75 nM | IC50 [5]: < 2 nM; IC50 [6]: < 2 nM; IC50 [7]: 4 nM
5 | Cc1c(-c2ccc(N3CCNCC3)cc2)cncc1-c1ccc2c(c1)CNC2=O | 2340 nM | 4810 nM |  | > 5000 nM | IC50 [5]: 171 nM; IC50 [6]: 363 nM; IC50 [7]: 226 nM
6 | COc1c(-c2cncc(-c3ccc(N4CCNCC4)cc3)c2C)csc1C(N)=O | 2810 nM | > 5000 nM | 712 nM | > 5000 nM | 
7 | COc1cc(-c2cncc(-c3ccc(N4CCNCC4)cc3)c2C)ccc1C(N)=O | 55 nM |  |  |  | IC50 [5]: 5 nM; IC50 [6]: 9 nM; IC50 [7]: 9 nM
8 | COc1cc(-c2cncc(-c3ccc(N4CCNCC4)cc3)c2C)cc(Cl)c1C(N)=O | 93 nM | > 5000 nM |  | 2080 nM | IC50 [5]: < 2 nM; IC50 [6]: 4 nM; IC50 [7]: 5 nM
9 | COc1c(C(N)=O)csc1-c1cncc(-c2ccc(N3CCNCC3)cc2)c1C | > 5000 nM | > 5000 nM | > 1000 nM | > 5000 nM | 
10 | COc1cc(-c2cncc(-c3ccc(N4CCN(C(C)C)CC4)cc3)c2C)cc(OC)c1C(N)=O | 18 nM | 276 nM | 5 nM | 66 nM | 
11 | COc1ccc(-c2cncc(-c3ccc(N4CCNCC4)cc3)c2C)cc1C(N)=O | 694 nM | > 5000 nM | > 1000 nM | > 5000 nM | 
12 | COc1cc(-c2cncc(-c3ccc(N4CCN(C(C)C)CC4)cc3)c2C)cc(F)c1C(N)=O |  |  |  |  | inhibition [8]: Active; inhibition [9]: Active; inhibition [10]: Active; inhibition [11]: Active; inhibition [12]: Active; inhibition [13]: Active; inhibition [14]: Active
13 | Cc1c(-c2ccc(N3CCNCC3)cc2)cncc1-c1ccc(C(N)=O)c(F)c1 | 1010 nM | > 5000 nM | 263 nM | > 5000 nM | 
14 | COc1cc(-c2cncc(-c3ccc(N4CCNCC4)cc3)c2C)cc(F)c1C(N)=O | 81 nM |  |  |  | Cmax [15]: 97 ng/mL; Stability [16]: > 85%; t1/2 [17]: 1.31 h; IC50 [5]: 4 nM; IC50 [6]: 7 nM; Stability [18]: > 85%; IC50 [7]: 8 nM; AUC [19]: 296 ng·h/mL; Papp B→A at 2 h, 5 µM [20]: 10.7 ×10⁻⁶ cm/s; Papp A→B at 2 h, 5 µM [21]: 0.3 ×10⁻⁶ cm/s
15 | COc1cc(-c2cncc(-c3ccc(N4CCNCC4)cc3)c2C)cc(OC)c1C(N)=O | 178 nM |  |  |  | 
16 | COc1cc(-c2cncc(-c3ccc(N4C[C@@H](C)N(C)[C@@H](C)C4)cc3)c2C)cc(OC)c1C(N)=O |  | 283 nM | 3 nM | 52 nM | 
17 | COc1cc(C(N)=O)cc(-c2cncc(-c3ccc(N4CCNCC4)cc3)c2C)c1 | 588 nM | > 5000 nM | 102 nM | > 5000 nM | 
18 | COc1cc(-c2cncc(-c3ccc(N4C[C@@H](C)N(C)[C@@H](C)C4)cc3)c2C)cc(F)c1C(N)=O | 100 nM | > 5000 nM | 10 nM | 2910 nM | Stability [16]: Stable; inhibition [8]: Active; inhibition [9]: Active; inhibition [10]: Active; inhibition [11]: Active; inhibition [12]: Active; Stability [18]: Stable; IC50 [22]: 19000 nM; inhibition [13]: Active; Papp B→A at 2 h, 5 µM [20]: 14.5 ×10⁻⁶ cm/s; inhibition [14]: Active; Papp A→B at 2 h, 5 µM [21]: 4.3 ×10⁻⁶ cm/s
19 | Cc1c(-c2ccc(C(N)=O)cc2)cncc1-c1ccc(N2CCNCC2)cc1 | 2770 nM | > 5000 nM | 477 nM | > 5000 nM | 
20 | COc1cc(-c2cncc(-c3ccc(N4CCNCC4)cc3)c2C)ccc1C(=O)N(C)C | > 5000 nM | > 5000 nM | > 1000 nM | > 5000 nM | 
